Test results taken from US11186603B2, “Heparan sulfate glycomimetic compounds and their pharmaceutical and cosmeceutical uses” (VICTORIA LINK LIMITED, priority 2017, dated 2021).
Where “and” joins values, the source holds several entries; their conditions need not be identical. Equal entries are not always repeated. Entries after “also recorded” stand apart in the source; their conditions may differ.

Legend:
[1] = tested on: human dermal fibroblast cell line, CRL2071; test: Production of hyaluronan (ELISA); format: cell-based; details: liberated, 10 μM, 72 h
Procedure: (§1) Cells from the human dermal fibroblast cell line, CRL2071 (passages 12-14), obtained from normal breast skin of a person, were allowed to attach for 6-8 hours before the addition of the test compounds. After 72 h of exposure to the test articles the media was removed, cells counted and the cell-associated fraction extracted. The media and cell-associated fraction were analysed for the concentration of hyaluronan using a Hyaluronan Detection Kit ELISA.
(§2) The test compounds, positive controls and no treatment media were added to the flasks (2.5 ml/flask) and cells were incubated for 72 h before removal of the supernatant. After removal of the supernatant, cell monolayers were trypsinsed with 2.5 ml of 0.025% trypsin/[…] in PBS to each flask. After cell detachment (7-10 min), 1 ml of the cell/trypsin mixture was added to a 20 ml counting vial containing 9 ml of normal saline. The cells were quantitated with a Coulter Counter Z2.
(§3) In some treatments cells were found floating. They were collected, counted and subjected to viability testing using 1% trypan blue staining. The remaining 1.5 ml of trypsin/cell mixture was sonicated with a Branson tip-probed sonicator for 1 min, setting 6 before centrifugation at 10,000 rpm for 10 min. The supernatant was removed and used in the hyaluronan ELISA for the quantitation of cell-associated hyaluronan.

[2] = tested on: human dermal fibroblast cell line, CRL2071; test: Production of collagen type I (ELISA); format: cell-based
Procedure: as §1, with “collagen type I” for “hyaluronan”, “Chondrex Human type I Collagen” for “Hyaluronan”, “ELISA (Cat #6021).” for “ELISA.”
After complete dissolution the solutions were sterile filtered through a […] syringe filter and kept at 4° C. until use. Prior to each experiment dilutions were freshly prepared by diluting to 100 nM, 1 μM or 10 μM in cell-specific media.
as §2
as §3, with “collagen” for “hyaluronan”, “collagen.” for “hyaluronan.”

[3] = tested on: bacterial collagenase type II from Clostridium histolyticum; test: Colorimetric gelatinolytic assay, collagenase inhibition; format: biochemical; details: 10 μM
Procedure: A colorimetric gelatinolytic assay was used to evaluate the effects of heparanase inhibitors on the activity of bacterial collagenase type II from Clostridium histolyticum. The reaction mixture was prepared in a total volume of 20 μl for each well of the microplate/inhibition assay. First, 1 ul of 100 ng of bacterial collagenase and 2 μl of the heparanase inhibitor or positive control (50 μg/ml doxycycline) were added into each well of a 96-well plate and incubated at 37° C. for 60 min. On completion of the incubation, 10 μg of gelatin and 2 μl of 10× collagenase buffer (500 mM Tris-HCl, 100 mM CaCl2, and 1.5 M NaCl) were added to distilled water to obtain the final volume of 20 μl. The plate was then incubated at 37° C. for 4 h. Subsequently, the amount of gelatin remaining was quantified by the addition of 20 μl of 2.5% w/v of Coomassie Brilliant blue R-250 (Sigma-Aldrich) dissolved in 40% methanol/10% acetic acid, followed by shaking on an orbital shaker for 5 min. The supernatant was carefully removed by pipette to ensure that the gelatin pellet was not disturbed and 50 μl of dimethyl sulfoxide was added to dissolve the pellet. The plate was incubated at room temperature for 15 min followed by shaking on an orbital shaker for 5 min. The plate was then read in a Versa max microplate reader at 600 nm.

[4] = target: T1, Recombinant human heparanase (Homo sapiens, UniProt Q9Y251); test: Heparanase inhibition colorimetric assay (fondaparinux / WST-1); format: biochemical; details: FIGS. 1 to 3; inhibitor 1 μM, 10 μM and dose response
T1 construct: made in house; host or cells: insect cells
T1 sequence (Q9Y251 158-543 limits assumed): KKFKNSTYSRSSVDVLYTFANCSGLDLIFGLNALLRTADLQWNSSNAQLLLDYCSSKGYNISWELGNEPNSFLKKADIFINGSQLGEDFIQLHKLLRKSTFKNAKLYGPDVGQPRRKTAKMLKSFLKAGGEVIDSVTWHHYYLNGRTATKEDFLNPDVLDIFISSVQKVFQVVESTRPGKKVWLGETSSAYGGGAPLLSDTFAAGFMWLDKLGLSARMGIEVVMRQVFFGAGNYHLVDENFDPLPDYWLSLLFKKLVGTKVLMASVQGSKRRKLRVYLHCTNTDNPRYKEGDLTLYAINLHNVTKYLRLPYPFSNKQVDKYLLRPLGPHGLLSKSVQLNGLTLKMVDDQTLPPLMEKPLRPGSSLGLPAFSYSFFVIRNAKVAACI
T1 sequence (Q9Y251 36-109 limits assumed): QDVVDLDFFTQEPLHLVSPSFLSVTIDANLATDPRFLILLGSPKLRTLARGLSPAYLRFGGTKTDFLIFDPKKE
Procedure: The assay methodology used is described in Hammond, E., et al., Development of a colorimetric assay for heparanase activity suitable for kinetic analysis and inhibitor screening, Anal. Biochem. 2010, 396 (1), 112-116.
Reagents were obtained from Sigma-Aldrich. Assays were carried out in 96-well microplates (Costar 9018 EIA/RIA, Corning) that had been pretreated with a solution of 4% bovine serum albumin (BSA) in phosphate-buffered saline containing 0.05% Tween 20 (PBST) for 2 h at 37° C. The plates were then washed three times with PBST and shaken dry. Pretreated plates were stored at 4° C. for up to 2 weeks before use.
Recombinant human heparanase was expressed in insect cells and then purified from the cell medium into which it had been secreted. […] Fractions containing pure heparanase, determined by silver staining of sodium dodecyl sulfate-polyacrylamide gel electrophoresis (SDS-PAGE), were pooled, dialyzed into 10 mM sodium phosphate (pH 7.0), concentrated using Centriplus concentrating devices (Millipore), and stored at −80° C. until use.
Assay solutions (100 μl) were composed of 40 mM sodium acetate buffer (pH 5.0) and […] fondaparinux (GlaxoSmithKline) with or without inhibitor. […] The plates were resealed with adhesive tape and developed at 60° C. for 60 min, and the absorbance was measured at 584 nm (FLUOstar, BMG Labtech).

O=C(CCOCC(COCCC(=O)NCCCCCCOC1OC(COS(=O)(=O)[O-])C(OS(=O)(=O)[O-])C(OS(=O)(=O)[O-])C1OS(=O)(=O)[O-])(COCCC(=O)NCCCCCCOC1OC(COS(=O)(=O)[O-])C(OS(=O)(=O)[O-])C(OS(=O)(=O)[O-])C1OS(=O)(=O)[O-])COCCC(=O)NCCCCCCOC1OC(COS(=O)(=O)[O-])C(OS(=O)(=O)[O-])C(OS(=O)(=O)[O-])C1OS(=O)(=O)[O-])NCCCCCCOC1OC(COS(=O)(=O)[O-])C(OS(=O)(=O)[O-])C(OS(=O)(=O)[O-])C1OS(=O)(=O)[O-].[Na+].[Na+].[Na+].[Na+].[Na+].[Na+].[Na+].[Na+].[Na+].[Na+].[Na+].[Na+].[Na+].[Na+].[Na+].[Na+] (stereo not shown) [Compound 17b]
Hyaluronan as % of No Treatment Control (Mean ± SD) [1]: 167 ± 36p = 0.233% | Collagen as % of No Treatment Control (Mean ± SD), Cell-associated [2]: 1,155 ± 25% and 2,371 ± 49% and 2,371% | Collagenase inhibition as a % of the "No Treatment" control (Mean ± SD) [3]: 74 ± 2% | inhibition of heparanase (in words) [4]: particularly good inhibitors; also recorded: very good inhibition of heparanase
